Laboratory results published in patent US20110301168A1, “CYCLOALKANE[B]AZAINDOLE ANTAGONISTS OF PROSTAGLANDIN D2 RECEPTORS” (AMIRA PHARMACEUTICALS, INC., priority 2008, published 2011).

What was measured:
human DP2 receptor = biological target: T1, human DP2 receptor (Homo sapiens, UniProt Q9Y5Y4); test: DP2/CRTH2 radioligand binding assay using [3H]PGD2; conditions: membranes of HEK293 cells expressing recombinant human DP2, 1 nM [3H]PGD2; read-out: hDP2
T1 construct: expressed in transfected cells; membrane preparation
T1 sequence (Q9Y5Y4 1-395): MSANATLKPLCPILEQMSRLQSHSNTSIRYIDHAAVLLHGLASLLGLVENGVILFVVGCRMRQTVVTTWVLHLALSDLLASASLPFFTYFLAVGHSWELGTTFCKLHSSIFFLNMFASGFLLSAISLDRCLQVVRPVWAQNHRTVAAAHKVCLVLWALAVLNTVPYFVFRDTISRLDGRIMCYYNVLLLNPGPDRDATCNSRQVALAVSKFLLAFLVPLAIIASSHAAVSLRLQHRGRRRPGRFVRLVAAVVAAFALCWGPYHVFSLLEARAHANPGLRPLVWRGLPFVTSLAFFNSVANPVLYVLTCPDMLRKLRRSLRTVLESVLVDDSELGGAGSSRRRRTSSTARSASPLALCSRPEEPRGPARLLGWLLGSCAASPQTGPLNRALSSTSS
Method: The ability of a compound to bind to the human DP2 receptor is assessed via a radioligand binding assay using [^3H]PGD2. HEK293 cells stably expressing recombinant human DP2 are resuspended in 10 mM Hepes, 7.4 containing 1 mM DTT, lysed and centrifuged at 75,000×g to pellet the membranes. The membranes are resuspended in 10 mM Hepes, 7.4 containing 1 mM DTT and 10% glycerol to approximately 5 mg protein/ml. Membranes (2-10 μg protein/well) are incubated in 96-well plates with 1 nM [^3H]PGD2 and test compound in Assay Buffer (50 mM Hepes, 10 mM MnCl2, 1 mM EDTA, plus or minus 0.2% human serum albumin, pH 7.4) for 60 minutes at room temperature. The reactions are terminated by rapid filtration through Whatman GF/C glass fibre filter plates. The filter plates were pre-soaked in 0.33% polythylenimine for 30 minutes at room temperature then washed in Wash Buffer (50 mM Hepes, 0.5 M NaCl pH 7.4) prior to harvesting. After harvesting, the filter plates are washed 3 times with 1 ml cold Wash Buffer then dried. Scintillant is then added to the plates and the radioactivity retained on the filters is determined on a Packard TopCount (Perkin Elmer). Specific binding is determined as total radioactive binding minus non-specific binding in the presence of 10 μM PGD2. IC50s were determined using GraphPad prism analysis of drug titration curves.

[1] = system: mouse model of allergic rhinitis; test: Mouse allergic rhinitis model (OVA-induced sneezing and nasal rubbing); type: in vivo; conditions: 10 mg/kg administered as the sodium salt, oral gavage 1 hour prior to OVA challenge; significantly reduced, approximately
Method: The compounds ability to inhibit allergen-induced sneezing and nasal rubbing is assessed using a mouse model of allergic rhinitis. Methods were adapted from those detailed in Nakaya, M., et al. 2006, Laboratory Investigation, 86:917-926. Female BALB/c mice (20-25 g) are immunized by an intraperitoneal injection (i.p.) of 10 μg ovalbumin (OVA) complexed with alum in a volume 0.2 mL on days 0 and 7. Fourteen days later (day 21) mice are challenged intranasally with 20 μl of a 10 mg/mL solution of OVA. The challenge period occurs daily from days 21 to day 23. Mice (5-7/group) are randomly assigned to receive either compound or vehicle and are treated by oral gavage 1 hour prior to OVA challenge. The number of sneezes and nasal rubs are counted by an independent blinded observe during a period of 8 minutes immediately following OVA challenge on days 21, 23 and […]. A significant increase in allergen-induced sneezing and nasal rubbing occurs over the 3-day challenge period. Inhibition of this effect by select compounds is determined statistically using Graphpad prism.

| IC50 (human DP2 receptor) [µM] | Structure (SMILES) | reduction of sneezing and nasal rubs versus vehicle-treated mice [1] |
| --- | --- | --- |
| < 0.1 | CN(C1CCc2c(c3ncccc3n2CC(=O)O)C1)S(=O)(=O)c1ccc(F)cc1 (racemic) [Compound 9, {8-[N-(4-fluoro-benzenesulfonyl)-N-methyl-amino]-6,7,8,9-tetrahydro-pyrido[3,2-b]indol-5-yl}-acetic acid] | 40-50% |
| < 0.1 | CN([C@@H]1CCc2c(c3ncccc3n2CC(=O)O)C1)S(=O)(=O)c1ccc(F)cc1 (single isomer, unassigned) [Compound 10] | – |
| > 0.1 | CN([C@H]1CCc2c(c3ncccc3n2CC(=O)O)C1)S(=O)(=O)c1ccc(F)cc1 (single isomer, unassigned) [Compound 11] | – |
| > 0.1 | CN(C1CCc2c(c3cccnc3n2CC(=O)O)C1)S(=O)(=O)c1ccc(F)cc1 (stereo not drawn) [Compound 23, {6-[N-(4-fluoro-benzenesulfonyl)-N-methyl-amino]-7,8-dihydro-5H-pyrido[2,3-b]indol-9(6H)-yl}-acetic acid] | – |
| > 0.1 | CN(C1CCc2c(c3nccnc3n2CC(=O)O)C1)S(=O)(=O)c1ccc(F)cc1 (stereo not drawn) [Compound 24, {8-[N-(4-fluoro-benzenesulfonyl)-N-methyl-amino]-6,7,8,9-tetrahydro-5H-pyrazino [2,3-b]indol-5-yl}acetic acid] | – |
